The assay has as its system HT-29 cells. The text has this:
Applicants next sought means to test nominated drugs (also referred to herein as candidate agents) using human cell cultures, particularly cell cultures derived from human tumors in which they discovered metakaryotic cells driving net growth and differentiation of such cultures by symmetric and asymmetric amitotic divisions.
The metakaryotic and pre-metakaryotic cells of cell lines derived from human tumors are capable of unlimited division when plated as single cells on plastic or glass surfaces. However, most cells in such cell lines are eukaryotic cells capable of limited cell growth which growth cannot give rise to immortal colonies or populations of cells. This quality permits the line to be used in quantitative assays of cell killing important for distinguishing among agents and regimens that kill metakaryotic cells in preference to eukaryotic cells and vice versa.
Single cells betray different fates. […] Applicants interpret these colonies and derived immortal populations to be the descendants of single metakaryotic or pre-metakaryotic stem cells.
Colonies of limited size between 1 and 2^11 cells are interpreted to be the products of growth of transition cell tiers three through eleven.
In this reproducible behavior the human tumor cell lines offered a means to test agents for metakaryocidal activity: metakaryocidal agents and regimens would reduce or eliminate the appearance of large colonies that could be propagated by serial trypsinized transfer. […] An example of this kind of assay is illustrated in FIGS. 1, 2 and 3.
In particular drugs evaluated were reported to overcome “multidrug resistance” giving special priority to drugs that suppressed “multidrug resistance” (MDR).
Shown in FIGS. 1-3 are images of quantitative trials of different regimens (initial concentration, duration of exposure) of metformin in clonal assays using HT-29 cells. […] FIG. 1 is a photograph illustrating the experimental design for testing metformin as a metakaryocide in vitro.
FIG. 2 depicts a table of the recorded colony counts on each of the flasks of the first image.
The Y-axis is the number of colonies on each test flask enumerated in FIG. 2 while the X-axis is the product of metformin concentration (micromolar) times the duration of the HT-29 cells to the drug (weeks).

SMILES strings stand for the structures. Read-outs that look alike come from different tables or passages of the source. Bounds are passed on as bounds.

Take `CN(C)C(=N)N=C(N)N` [metformin]: where the note is “HT-29, FIG. 1, five weeks”, the “concentration above which surviving large colonies are not immortal and do not contain metakaryotic stem cells” value was more than 100 µM. Further, where the note is “HT-29, FIG. 3”, the “concentration x duration of exposure at which elimination of metakaryotic cell-containing immortal colonies is reached” value is approximately 200 micromolar-weeks and the “concentration x duration of exposure below which killing of mortal colonies is not observed” value is recorded as “about 2000 micromolar weeks”. For the same compound, the “survival fraction of the metformin-sensitive population (metakaryotic cells)” value (HT-29, at ~200 μM weeks) is 10^−2. Besides, the “total large colony numbers reduced to a level less than in untreated control flasks” value (HT-29, colonies five weeks after seeding, treated from day one for one, two or five weeks, concentration x duration treatments shown with green counts in FIG. 2) is listed as “about 10%”. In addition, the “concentration at which surviving large colonies are not immortal and do not contain metakaryotic stem cells” value (HT-29, five weeks exposure) was determined as 800 µM. Further, the “concentration above which surviving large colonies are not immortal and do not contain metakaryotic stem cells” value (HT-29, one week exposure) is more than 1600 µM. In addition, the “expected survival of metakaryotic cells” value (extrapolated from FIG. 3, treatment of ~400 μM weeks) was 10^−4.
Regarding `COC(=O)[C@H]1[C@H]2C[C@@H]3c4[nH]c5cc(OC)ccc5c4CCN3C[C@H]2C[C@@H](OC(=O)c2cc(OC)c(OC)c(OC)c2)[C@@H]1OC` [reserpine], the “metakaryocidal effect (survival vs. concentration x duration function)” value (tests of some sixteen drugs, compared with metformin) is “no detectable effect as a metakaryocide”.

The record behind these values is patent publication US10314851B2, “Metakaryocidal treatments” (Massachusetts Institute of Technology, priority 2014, dated 2019).
